14 compounds from US5948791A, “Quinoline derivatives for treating malaria” (Hoffmann-La Roche Inc., priority 1995, dated 1999) can be followed below.

Data set [1] has as its system Plasmodium falciparum strain NF54. Kind of data set: Growth inhibition of Plasmodium falciparum NF54 (chloroquine-sensitive) in vitro, [G-3H]-hypoxanthin incorporation. Type of data set: cell-based. As to conditions: chloroquine-sensitive strain NF54, 72 h, read-out: IC50 for P. falciparum NF54. An excerpt: (§1) The ratio of the growth inhibition of a strain which is especially resistant to chloroquine and of a strain which is sensitive to chloroquine gives as the "resistance index" a measurement for the absence of a cross-resistance with chloroquine. Since, for all novel compounds the resistance index lies between 0.7 and 2.5, they inhibit the growth of sensitive as well as resistant strains of the malaria pathogen equally effectively. They are accordingly also suitable for the prophylaxis of a malaria disease and also for the treatment of a malaria disease even when chloroquine is ineffective. The good activity against malaria pathogens is also shown in animal experiments. The effective doses measured after oral and subcutaneous administration to mice infected with malaria pathogens are shown in Table 2 hereinafter.
(§2) Test method for the determination of the activity against Plasmodium falciparum in vitro
(§3) The preparations are tested on intraerythrocytary stages of Plasmodium falciparum from asynchronous cultures according to the method of Desjardin et al. (Desjardins, R. E. et al: Quantitative assessment of antimalarial activity in vitro by a semiautomated microdilution technique. Antimicrob. Agents Chemother. 16, 710-718, (1979)).
(§4) The culture medium consists of RPMI 1640 with the addition of 25 mM HEPES, 25 mM NaHCO3, 100 μg/ml neomycin and […] (A^+). Human-A^+ erythrocytes are used as the Plasmodium falciparum host cells. The parasites are maintained at 37° C. in an atmosphere of 3% O2, 4% CO2, 93% N2 and 95% relative humidity.
(§5) In order to determine the activity, the preparations are dissolved in DMSO, pre-diluted in the culture medium to a suitable starting concentration and subsequently titrated-out on to microtitre plates in the 2nd stage over 6-7 steps. After the addition of the parasite culture (0.7% parasitemia in 2.5% erythrocyte suspension) the test plates are incubated under the conditions given above for 72 h. The parasite growth in the different preparation concentrations is determined using [G-^3 H]-hypoxanthin incorporation compared to untreated control cultures on the same test plates. The 50% growth inhibition (IC50) is calculated according to logit regression analysis from the resulting dosage-activity curve.
(§6) The preparations are tested on at least one chloroquine-resistant and one chloroquine-sensitive Plasmodium falciparum strain. Additional sensitive and resistant strains are included for further characterization.

Another data set relates to Plasmodium falciparum K1. The data set is described as follows: Growth inhibition of Plasmodium falciparum K1 (chloroquine-resistant) in vitro, [G-3H]-hypoxanthin incorporation. It is filed as cell-based, Plasmodium falciparum (strain K1). Particulars: for IC50: Plasmodium falciparum, K1, 72 h, read-out: IC50 for P. falciparum K1; for Resistance index: ratio of the IC50 for K1 and the IC50 for NF54.
Description: as §1, §2, §3, §4, §5, §6

The next data set has as its system Plasmodium berghei. The data set is described as follows: animal or person. It is filed as in vivo, Plasmodium berghei (strain ANKA) in mice. Particulars: for inhibition in vivo at 10 mg/kg: Plasmodium berghei, mice, blood smears 48 h after treatment. As to the method:
Test method for the determination of the activity against Plasmodium berghei in vivo
The preparations are tested on mice infected with malaria pathogens (Plasmodium berghei). Male albino mice (IBM:MORO(SPF), FUELLINSDORF) weighing about 25 g are used as the test animals. They are kept in climatized rooms at 21-22° C. in groups of 5 animals per cage. They receive ad libitum a diet feed with a low PABA content (NAFAG FUTTER " No. 9009 PAB-45, PABA content 45 mg/kg) and drinking water. On the first day of the test (D0) the test animals are infected with Plasmodium berghei (strain ANKA). For this there is used heparinized blood of a donor mouse with about 30% parasitemia, which is diluted with physiological saline such that it contains 10^8 parasitized erythrocytes per ml. 0.2 ml of this suspension is injected intravenously (i.v.) into the mice to be treated and into the control mice.
The substances to be tested are dissolved or suspended in distilled water or in a mixture of 7% Tween 80, 3% alcohol (96%) and water. Usually, 0.25 ml of this solution or suspension is administered once subcutaneously and perorally to groups of 5 test animals. Treatment is effected 24 hours after the infection. 10 control animals are treated in the same manner with solvent or suspension medium per test.
All substances are tested in a first test in a single dosage of 10 mg/kg. Only those substances which in this test (10 mg/kg) have shown a parasitaemia reduction of 90% are used for the titration. Suitable dilutions of the test substance can be used to obtain an accurate titration of the activity.
48 hours after the treatment (D+3) blood smears are prepared from all animals using blood from tail veins and are stained with giemsa. […] The difference in the average values of the infection rates of control group (100%) and treated groups is calculated and expressed as a percentage reduction (GI%). The ED50 or ED90 is determined mathematically by means of the JMP programme (nonlinear fit). The ED50 (ED90) in mg/kg is that dose which after single administration reduces the average erythrocyte infection rate by 50% (90%) in comparison to the control group.

The mark [2] stands for this setting: sc, single subcutaneous dose of 10 mg/kg, read-out: Growth inhibition in % after sc administration (GI%, percentage reduction of the parasitemia).
The mark [3] stands for this setting: po, single peroral dose of 10 mg/kg, read-out: Growth inhibition in % after po administration (GI%, percentage reduction of the parasitemia).

Counter-ions that a name gives are not always drawn. Like-named read-outs stand apart in the source and are kept apart here.

For orientation: IC50 means the point on the concentration scale where inhibition reaches its midpoint.

For the compound `Cl.Cl.Clc1ccc2c(N[C@H]3CC[C@@H](NCc4c(Cl)cccc4Cl)CC3)ccnc2c1` [Example 15, cis-N1-(7-Chloro-quinolin-4-yl)-N4-(2,6-dichloro-benzyl)-cyclohexane-1,4-diamine dihydrochloride], the IC50 in data set [1] stood at 0.0043 mg/L; with Plasmodium falciparum K1, 0.0147 mg/L. Further, the Resistance index in the data set with Plasmodium falciparum K1 is 3.4. Also, the inhibition in vivo at 10 mg/kg with Plasmodium berghei (setting [2]) stood at 92%.
As to `COc1cccc(OC)c1CN[C@H]1CC[C@@H](Nc2ccnc3cc(Cl)ccc23)CC1.Cl.Cl` [Example 16, cis-N1-(7-Chloro-quinolin-4-yl)-N4-(2,6-dimethoxy-benzyl)-cyclohexane-1,4-diamine dihydrochloride], the IC50 in data set [1] was 0.002 mg/L; in the data set on Plasmodium falciparum K1 it was 0.017 mg/L. Further, the Resistance index in the data set on Plasmodium falciparum K1 is 8.5. Moreover, the inhibition in vivo at 10 mg/kg in the data set on Plasmodium berghei (setting [3]) was 99.8%; with Plasmodium berghei (setting [2]), 99.9%.
For `Cl.Cl.Clc1ccc2c(N[C@H]3CC[C@@H](NCc4c(Cl)ccc(Cl)c4Cl)CC3)ccnc2c1` [Example 17, cis-N1-(7-Chloro-quinolin-4-yl)-N4-(2,3,6-trichloro-benzyl)-cyclohexane-1,4-diamine dihydrochloride] the same measures were 0.0064 mg/L, 0.0174 mg/L, 2.8, 32% and 87%.
In the case of `COc1cc(O)c(CN[C@H]2CC[C@@H](Nc3ccnc4cc(Cl)ccc34)CC2)c(OC)c1.Cl.Cl` [Example 18, cis-2-{[4-(7-Chloro-quinolin-4-ylamino)-cyclohexylamino]-methyl}-3,5-dimethoxy-phenol dihydrochloride], the IC50 was 0.0055 mg/L in data set [1] and 0.021 mg/L with Plasmodium falciparum K1. The Resistance index in the data set with Plasmodium falciparum K1 was found to be 3.8. In addition, the inhibition in vivo at 10 mg/kg in the data set with Plasmodium berghei (setting [3]) and in the data set on Plasmodium berghei (setting [2]) was 100% in each case.
Consider `Cl.Cl.Fc1cccc(F)c1CN[C@H]1CC[C@@H](Nc2ccnc3cc(Cl)ccc23)CC1` [Example 19, cis-N1-(7-Chloro-quinolin-4-yl)-N4-(2,6-difluoro-benzyl)-cyclohexane-1,4-diamine dihydrochloride], for which the IC50 in data set [1] came out at 0.0049 mg/L; in the data set on Plasmodium falciparum K1 it was 0.0143 mg/L. Also, the Resistance index with Plasmodium falciparum K1 turned out to be 2.9. The inhibition in vivo at 10 mg/kg in the data set with Plasmodium berghei (setting [3]) was 21%. Also, the “Growth inhibition after sc administration: entry "toxic"” value in the data set with Plasmodium berghei (mouse, in vivo, sc, 10 mg/kg) is “toxic”.
On to `Clc1ccc2c(N[C@H]3CC[C@@H](NCCCc4ccccc4)CC3)ccnc2c1` [Example 20, cis-N1-(7-Chloro-quinolin-4-yl)-N4-(3-phenyl-propyl)-cyclohexane-1,4-diamine dihydrochloride], for which the results for the IC50 (in data set [1]; in the data set with Plasmodium falciparum K1) were 0.0044 mg/L and 0.0108 mg/L, respectively. The Resistance index with Plasmodium falciparum K1 was 2.5. Moreover, the figures for the inhibition in vivo at 10 mg/kg in the data set with Plasmodium berghei (setting [3]) and with Plasmodium berghei (setting [2]) were 94% and 98%, respectively.
On the same counts, the results for `COc1ccc(CN[C@H]2CC[C@@H](Nc3ccnc4cc(Cl)ccc34)CC2)cc1.Cl.Cl` [Example 21, cis-N1-(7-Chloro-quinolin-4-yl)-N4-(4-methoxy-benzyl)-cyclohexane-1,4-diamine dihydrochloride] are 0.0051 mg/L, 0.0093 mg/L, 1.8, 99.9% and 100%.
Take `Cl.Cl.O=[N+]([O-])c1cccc(Cl)c1CN[C@H]1CC[C@@H](Nc2ccnc3cc(Cl)ccc23)CC1` [Example 22, cis-N1-(2-Chloro-6-nitro-benzyl)-N4-(7-chloro-quinolin-4-yl)-cyclohexane-1,4-diamine dihydrochloride]: the IC50 in data set [1] was found to be 0.0116 mg/L; in the data set on Plasmodium falciparum K1 it was 0.0189 mg/L. In addition, the Resistance index in the data set with Plasmodium falciparum K1 is given as 1.6. Also, the results for the inhibition in vivo at 10 mg/kg in the data set on Plasmodium berghei (setting [3]) and with Plasmodium berghei (setting [2]) were 42% and 84%, respectively.
`CC(C)(CNc1ccnc2cc(Cl)ccc12)NCc1cc(Cl)cc(Cl)c1.Cl.Cl` [Example 23, N1-(7-Chloro-quinolin-4-yl)-N2-(3,5-dichloro-benzyl)-2-methylpropane-1,2-diamine dihydrochloride]: the IC50 in data set [1] was 0.0296 mg/L; in the data set with Plasmodium falciparum K1 it was 0.0325 mg/L. For the same compound, the Resistance index in the data set with Plasmodium falciparum K1 stood at 1.1. Further, the results for the inhibition in vivo at 10 mg/kg in the data set on Plasmodium berghei (setting [3]) and with Plasmodium berghei (setting [2]) were 97% and 98%, respectively.
For `CC(C)(CNc1ccnc2cc(Cl)ccc12)NCc1ccccc1` [Example 24, N1-(7-Chloro-quinolin-4-yl)-N2-(benzyl)-2-methyl-propane-1,2-diamine dihydrochloride] the same measures were 0.0079 mg/L, 0.0132 mg/L, 1.7, 81% and 95%.
On the same counts, the results for `CC(C)(CNc1ccnc2cc(Cl)ccc12)NCc1ccc(Cl)cc1` [Example 25, N1-(7-Chloro-quinolin-4-yl)-N2-(4-chloro-benzyl)-2-methyl-propane-1,2-diamine dihydrochloride] are 0.0173 mg/L, 0.0129 mg/L, 0.7, 99.2% and 99.8%.
For `CC(C)(CNc1ccnc2cc(Cl)ccc12)NCc1ccc(Cl)c(F)c1.Cl.Cl` [Example 27, N1-(7-Chloro-quinolin-4-yl)-N2-(4-chloro-3-fluoro-benzyl)-2-methyl-propane-1,2-diamine dihydrochloride] the same measures were 0.016 mg/L, 0.0233 mg/L, 1.5, 99% and 98%.
Turning to `CC(=O)O.CC(=O)O.CC(C)(CNc1ccnc2cc(Cl)ccc12)NCc1ccccc1O` [Example 28, N1-(7-Chloro-quinolin-4-yl)-N2-(2-hydroxybenzyl)-2-methyl-propane-1,2-diamine diacetate], the results for the IC50 (in data set [1]; in the data set with Plasmodium falciparum K1) were 0.004 mg/L and 0.0107 mg/L, respectively. The Resistance index in the data set on Plasmodium falciparum K1 came out at 2.7. For the same compound, the inhibition in vivo at 10 mg/kg with Plasmodium berghei (setting [3]) was 79%; in the data set on Plasmodium berghei (setting [2]), 96%.
For `COc1ccc(CNC(C)(C)CNc2ccnc3cc(Cl)ccc23)c(O)c1.Cl.Cl` [Example 29, N1-(7-Chloro-quinolin-4-yl)-N2-(2-hydroxy-4-methoxy-benzyl)-2-methyl-propane-1,2-diamine dihydrochloride] the same measures were 0.0077 mg/L, 0.0162 mg/L, 2.1, 74% and 99%.
